Measured values taken from patent US7419788B2, “Method for screening anti-bacterial agents” (priority 2001, dated 2008).

Molecular target: T1, transpeptidase enzyme (PBP1b) (Escherichia coli, UniProt P02919)
T1 construct: the ponB gene encoding PBP1b is overexpressed since the strain contains a plasmid comprising a further copy of ponB under the control of its native promoter; made in house; host or cells: Escherichia coli AMA1004 ΔponA; pBS96 (membranes solubilised with 1% CHAPS and 1M NaCl; supernatant used)
T1 sequence (P02919 whole entry): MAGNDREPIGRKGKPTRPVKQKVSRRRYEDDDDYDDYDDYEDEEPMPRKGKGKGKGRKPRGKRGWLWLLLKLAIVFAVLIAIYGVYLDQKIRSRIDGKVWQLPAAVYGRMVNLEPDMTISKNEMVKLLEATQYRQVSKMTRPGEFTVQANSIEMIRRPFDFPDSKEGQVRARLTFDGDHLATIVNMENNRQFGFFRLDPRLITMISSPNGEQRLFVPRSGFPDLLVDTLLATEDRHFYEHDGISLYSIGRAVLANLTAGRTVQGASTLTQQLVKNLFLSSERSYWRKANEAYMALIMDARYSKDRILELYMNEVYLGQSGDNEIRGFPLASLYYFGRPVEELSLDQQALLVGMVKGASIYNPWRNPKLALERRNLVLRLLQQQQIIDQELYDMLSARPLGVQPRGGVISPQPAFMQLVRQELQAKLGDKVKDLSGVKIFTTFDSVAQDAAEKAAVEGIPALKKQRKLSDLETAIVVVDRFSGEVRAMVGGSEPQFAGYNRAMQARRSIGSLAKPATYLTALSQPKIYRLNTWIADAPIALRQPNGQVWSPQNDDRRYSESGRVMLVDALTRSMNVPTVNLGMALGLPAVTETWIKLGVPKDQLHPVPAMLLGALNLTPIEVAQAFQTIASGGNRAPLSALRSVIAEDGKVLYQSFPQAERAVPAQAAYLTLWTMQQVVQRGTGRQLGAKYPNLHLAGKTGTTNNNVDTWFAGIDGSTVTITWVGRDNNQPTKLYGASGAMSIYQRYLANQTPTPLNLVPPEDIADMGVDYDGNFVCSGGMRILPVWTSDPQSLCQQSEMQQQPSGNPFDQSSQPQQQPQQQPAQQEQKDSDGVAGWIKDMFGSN
Assay: Scintillation proximity assay for formation of radiolabelled cross-linked peptidoglycan (transpeptidase inhibition)
Type: biochemical
Experimental: 4 mg of Escherichia coli AMA1004 cell membranes prepared as described in WO 99/60155 were incubated with 5 ml of 100 mM ampicillin in 50 mM Tris HCl buffer pH 7.5 and 0.1 mM MgCl2 for 30 minutes at room temperature. The membranes were sedimented by centrifugation at 150,000×g for 15 minutes and then washed three times. They were finally resuspended in 1 ml of 50 mM Tris HCl buffer and 0.1 mM MgCl2. […]
The membranes of this E. coli strain were prepared as described in WO 99/60155. They were then treated with a detergent, 1% (3-[(3-cholamidopropyl)dimethylammonio]-1-propane-sulphonate (CHAPS), and 1M NaCl at a protein concentration of 5 mg/ml for 1 hour at room temperature. The mixture was then centrifuged at 150,000×g for 15 minutes in a Beckman table top ultracentrifuge and the supernatant containing PBP1b collected. The quantity of PBP1b protein used was the “soluble fraction” equivalent to 5 μg of starting membrane. […]
The microtitre plate was left for 3 to 10 hours at room temperature before being counted in the “Microbeta Trilux” counter. […]
Table 1 below enumerates the inhibitory effects of penicillin G on the transpeptidase enzyme (after subtracting the corresponding 0% reaction readings).

In the case of `CC1(C)S[C@@H]2[C@H](NC(=O)Cc3ccccc3)C(=O)N2[C@H]1C(=O)O` [Penicillin G, penicillin G], the Counts per minute (after subtracting the corresponding 0% reaction readings, PBP1b extract from E. coli AMA1004 ΔponA, pBS96, ampicillin-treated AMA1004 membranes, 37° C. for 15 minutes) was 319 and the “% Inhibition” value (inhibitory effect on the transpeptidase enzyme, relative to wells with no test compound (100% reaction controls), test concentration not given) was 94%.
